Data set [1] is described as follows: Acute toxicity study (OECD limit test). The settings on record: mouse, in vivo; Swiss albino mice, limit test dose 2000 mg/kg, OECD guideline. The procedure:
Acute toxicity study was carried out as described earlier using the limit test dose of 2000 mg/kg according to OECD guideline for testing of chemicals on Swiss albino mice.

Data set [2] relates to axenically cultured amastigotes of Leishmania donovani. Briefly: In vitro assay on axenically cultured amastigotes (resazurin fluorescence). The conditions noted are these: for Selectivity index: LC50 on THP-1 cells / IC50 on L. donovani amastigotes; for IC50: Leishmania donovani, L. donovani axenic amastigotes, 72 h. The format is cell-based. The procedure: (§1) In vitro antileishmanial activity tests were carried out against the promastigote stage and axenically cultured amastigotes of L. aethiopica and L. donovani. The two isolates were grown in tissue culture flasks containing RPMI 1640 medium supplemented with 10% heat-inactivated fetal calf serum, 100 IU penicillin/mL, and 100 μg/mL streptomycin solution at 22°C for L. aethiopica and 24°C for L. donovani. Axenically cultured amastigotes were obtained from the late stationary phase promastigotes (3 × 10^6 cells/ml). The cells were centrifuged and then resuspended in medium 199 with Hank's salts supplemented with 20% FBS, 2 mM L-glutamine, 50 IU/mL penicillin, and 50 μg/mL streptomycin. The pH was adjusted to 5.5 using 1 N HCl. Following incubation of cells at 31°C for L. aethiopica and 37°C for L. donovani at 5% CO2, amastigote-like rounded morphology together with loss of flagella and cell clumping started appearing within 24 h. The parasites were kept for a week as some motile parasites with intermediate forms and short flagella were detected. […] A cell-free medium was used to grow parasites in vitro and to set up the test system for determination of the IC50 values of the test substances. […] Each one hundred microliter suspension of the parasites (3.5 × 10^6 promastigotes or axenically cultured amastigotes /mL of L. aethiopica or L. donovani) obtained from the previous culture was then added to each well, and contents of each plates were maintained for 72 h, at room temperature for promastigotes stages of both strains, at 31°C and 37°C for axenically cultured amastigotes of L. aethiopica and L. donovani, respectively. After 68 h of incubation, 20 μL (10% of the total volume of each well) resazurin (0.125 mg/mL) was added, covered with aluminum foil, and left at temperature mentioned above. […] Antileishmanial activity (IC50) was expressed as mean ± SD of triplicate measurements. IC50 values were evaluated from sigmoidal dose-response curves of percent inhibition using the computer software GraphPad Prism 8 (GraphPad Software, Inc., CA, USA), and values expressed as mean ± SD of triplicate experiments.
A general note: Alamar Blue is a resazurin reagent that responds to reducing activity.

Data set [3] has as its system axenically cultured amastigotes of Leishmania aethiopica. The data set is described as above. The format is cell-based. The settings on record: for Selectivity index: LC50 on THP-1 cells / IC50 on L. aethiopica amastigotes; for IC50: Leishmania aethiopica, L. aethiopica axenic amastigotes, 72 h. The procedure:
as §1

For another data set, the system named is L. major amastigotes. Details: method as in PMID 26151018. The settings on record: in vitro; cited from earlier work.
Data set [4] relates to Leishmania aethiopica promastigotes. Briefly: In vitro antipromastigote assay (resazurin fluorescence). The format is cell-based. The procedure: (§2) In vitro antileishmanial activity tests were carried out against the promastigote stage and axenically cultured amastigotes of L. aethiopica and L. donovani. The two isolates were grown in tissue culture flasks containing RPMI 1640 medium supplemented with 10% heat-inactivated fetal calf serum, 100 IU penicillin/mL, and 100 μg/mL streptomycin solution at 22°C for L. aethiopica and 24°C for L. donovani. Axenically cultured amastigotes were obtained from the late stationary phase promastigotes (3 × 10^6 cells/ml). The cells were centrifuged and then resuspended in medium 199 with Hank's salts supplemented with 20% FBS, 2 mM L-glutamine, 50 IU/mL penicillin, and 50 μg/mL streptomycin. The pH was adjusted to 5.5 using 1 N HCl. Following incubation of cells at 31°C for L. aethiopica and 37°C for L. donovani at 5% CO2, amastigote-like rounded morphology together with loss of flagella and cell clumping started appearing within 24 h. The parasites were kept for a week as some motile parasites with intermediate forms and short flagella were detected. The human monocytic leukemia cell line THP-1 cells were incubated in RPMI 1640 medium plus 10% hi-FCS and 20 ng/mL phorbol 12-myristate 13-acetate (PMA; Sigma) at 37°C and 5% CO2 for 72 h. A cell-free medium was used to grow parasites in vitro and to set up the test system for determination of the IC50 values of the test substances.
(§3) To a separate 96-well microtiter plate containing 100 μL of complete culture medium, each of the test substances was added to triplicate wells to achieve a final concentration of 100 μg/mL. Each one hundred microliter suspension of the parasites (3.5 × 10^6 promastigotes or axenically cultured amastigotes /mL of L. aethiopica or L. donovani) obtained from the previous culture was then added to each well, and contents of each plates were maintained for 72 h, at room temperature for promastigotes stages of both strains, at 31°C and 37°C for axenically cultured amastigotes of L. aethiopica and L. donovani, respectively. After 68 h of incubation, 20 μL (10% of the total volume of each well) resazurin (0.125 mg/mL) was added, covered with aluminum foil, and left at temperature mentioned above. Antileishmanial effect of the test substances was studied on the basis of fluorescence characteristic of resazurin added to drug-treated cultures.
(§4) Antipromastigote effect was evaluated against clinical isolates of L. aethiopica and L. donovani strains, as per the method described by Abeje et al..
(§5) Antileishmanial activity (IC50) was expressed as mean ± SD of triplicate measurements. IC50 values were evaluated from sigmoidal dose-response curves of percent inhibition using the computer software GraphPad Prism 8 (GraphPad Software, Inc., CA, USA), and values expressed as mean ± SD of triplicate experiments.

Data set [5] concerns Leishmania donovani promastigotes. Described as above. The format is cell-based. The conditions noted are these: L. donovani promastigotes, 72 h. The procedure: as §2, §3, §4, §5
Data set [6] in a line: Cytotoxicity study in THP-1 monocytes (Alamar Blue). The format is cell-based. The conditions noted are these: human. The procedure:
In vitro antileishmanial activity tests were carried out against the promastigote stage and axenically cultured amastigotes of L. aethiopica and L. donovani. […] Axenically cultured amastigotes were obtained from the late stationary phase promastigotes (3 × 10^6 cells/ml). […] The pH was adjusted to 5.5 using 1 N HCl. Following incubation of cells at 31°C for L. aethiopica and 37°C for L. donovani at 5% CO2, amastigote-like rounded morphology together with loss of flagella and cell clumping started appearing within 24 h. The parasites were kept for a week as some motile parasites with intermediate forms and short flagella were detected. […] A cell-free medium was used to grow parasites in vitro and to set up the test system for determination of the IC50 values of the test substances.
THP-1 monocytes were plated onto 96-well plates at a density of 4 × 10^4 cells per well (in 200 μL volume) in the presence or absence of test substances and plates incubated at 37°C, 5% CO2 for 72 h. After adding Alamar Blue™ during the last 3 h of incubation, cell viability was measured fluorometrically as described above.

The mark [7] stands for this setting: 37°C, mean ± SD, n = 3, read-out: Antiaxenically cultured amastigotes activity IC50.
Where [8] appears, read: read-out: Antiaxenically cultured amastigotes activity IC50 (micromolar, in parenthesis) (converted).
Setting [9] is: 31°C, mean ± SD, n = 3, read-out: Antiaxenically cultured amastigotes activity IC50.
Setting [10] is: L. aethiopica promastigotes, 72 h, mean ± SD, n = 3, read-out: Antipromastigote activity IC50.
Setting [11] is: L. aethiopica promastigotes, 72 h, read-out: Antipromastigote activity IC50 (micromolar, in parenthesis) (converted).
The mark [12] stands for this setting: mean ± SD, n = 3, read-out: Antipromastigote activity IC50.
Where [13] appears, read: read-out: Antipromastigote activity IC50 (micromolar, in parenthesis) (converted).
[14] abbreviates: mean ± SD, n = 3, read-out: Cytotoxic effect in THP-1 LC50.
Setting [15] is: read-out: Cytotoxic effect in THP-1 LC50 (micromolar, in parenthesis) (converted).

The source of these data is publication PMC6409032, “Antileishmanial Evaluation of the Leaf Latex of Aloe macrocarpa, Aloin A/B, and Its Semisynthetic Derivatives against Two Leishmania Species” (Evidence-based Complementary and Alternative Medicine : eCAM, 2019).

The LD50 is the dose expected to kill half of the subjects tested. Low values mean a more toxic substance, high ones a less toxic substance. The IC50 is the midpoint of a concentration-inhibition curve.

Like-named read-outs stand apart in the source and are kept apart here.

`O=C1c2cccc(O)c2C(=O)c2c(O)cc(CO)cc21` [Aloe-emodin, aloe-emodin] had an LD50 in data set [1] greater than 2000 mg/kg. The Selectivity index in data set [2] is reported as 52.89; in data set [3], 65.22. The IC50 is 2.75 ± 0.03 µg/mL in data set [2] (setting [7]); 10.2 µM in data set [2] (setting [8]); 2.23 ± 0.33 µg/mL in data set [3] (setting [9]); 8.3 µM in data set [3] (setting [8]); 2.81 ± 0.43 µg/mL in data set [4] (setting [10]); 10.4 µM in data set [4] (setting [11]). Moreover, the IC50 in data set [5] (setting [12]) is 2.85 ± 0.5 µg/mL; in data set [5] (setting [13]), 10.6 µM. For the same compound, the “inhibitory concentrations against L. major amastigotes” value in the data set with L. major amastigotes was 40 µg/mL. Besides, the CC50 at 72 h was 145.4 ± 0.27 µg/mL in data set [6] (setting [14]) and 539 µM in data set [6] (setting [15]).
Regarding `O=C1c2c(O)cccc2C(C2OC(CO)C(O)C(O)C2O)c2cc(CO)cc(O)c21` (centres unmarked) [Aloin A/B, aloin A/B], the LD50 in data set [1] was greater than 2000 mg/kg. Moreover, the results for the Selectivity index in data set [2] and in data set [3] were 52.84 and 55.11, respectively. For the same compound, the half-inhibitory concentration (IC50) in data set [2] (setting [7]) is 2.92 ± 0.15 µg/mL; in data set [2] (setting [8]) it was 7 µM; in data set [3] (setting [9]), 2.8 ± 1.02 µg/mL; in data set [3] (setting [8]) it was 6.7 µM; in data set [4] (setting [10]), 3.94 ± 0.33 µg/mL; in data set [4] (setting [11]), 9.4 µM. The figures for the IC50 in data set [5] (setting [12]) and in data set [5] (setting [13]) were 5.06 ± 0.22 µg/mL and 12.1 µM, respectively. The values for the CC50 at 72 h in data set [6] (setting [14]) and in data set [6] (setting [15]) were 154.3 ± 0.22 µg/mL and 369 µM, respectively.
For `C[C@@H]1[C@H](O)[C@@H](C)/C=C/C=C/C=C/C=C/C=C/C=C/C=C/[C@H](O[C@@H]2O[C@H](C)[C@@H](O)[C@H](N)[C@@H]2O)C[C@@H]2O[C@](O)(C[C@@H](O)C[C@@H](O)[C@H](O)CC[C@@H](O)C[C@@H](O)CC(=O)O[C@H]1C)C[C@H](O)[C@H]2C(=O)O` [Amphotericin B, amphotericin B, reference compound], the Selectivity index in data set [2] worked out at 6.60; in data set [3], 8.31. Also, the IC50 in data set [2] (setting [7]) is 1.55 ± 0.51 µg/mL; in data set [2] (setting [8]), 1.7 µM; in data set [3] (setting [9]) it was 1.23 ± 0.41 µg/mL; in data set [3] (setting [8]), 1.3 µM; in data set [4] (setting [10]), 2.43 ± 0.22 µg/mL; in data set [4] (setting [11]), 2.6 µM. Also, the IC50 in data set [4] (promastigotes and axenic amastigotes of L. aethiopica and L. donovani, read-out: IC50 (range over both stages and both species)) was 1.3 to 2.7 µM; in data set [5] (setting [12]), 2.45 ± 0.21 µg/mL; in data set [5] (setting [13]), 2.7 µM. Moreover, the CC50 at 72 h in data set [6] (setting [14]) was 10.2 ± 0.32 µg/mL; in data set [6] (setting [15]) it was 11.1 µM.
Turning to `O=C(O)c1cc(O)c2c(c1)C(=O)c1cccc(O)c1C2=O` [Rhein, rhein], in data set [1], the LD50 is greater than 2000 mg/kg. Also, the Selectivity index was found to be 148.46 in data set [2] and 171.98 in data set [3]. The IC50 in data set [2] (setting [7]) is 1.17 ± 0.42 µg/mL; in data set [2] (setting [8]), 4.1 µM; in data set [3] (setting [9]), 1.01 ± 0.22 µg/mL; in data set [3] (setting [8]), 3.6 µM; in data set [4] (setting [10]), 1.91 ± 0.61 µg/mL; in data set [4] (setting [11]), 6.7 µM. Moreover, the IC50 in data set [5] (setting [12]) is 2.07 ± 0.11 µg/mL; in data set [5] (setting [13]) it was 7.3 µM. The CC50 at 72 h was 173.7 ± 0.11 µg/mL in data set [6] (setting [14]) and 612 µM in data set [6] (setting [15]).
